US20200384003A1, “TRITERPENOID-CONTAINING PHARMACEUTICAL COMPOSITION AND USE THEREOF” (SHANGHAI LANMU CHEMICALS CO., LTD., priority 2017, published 2020)

Biological target: T1, mutated lens protein (αB-crystallin R120G) (Homo sapiens, UniProt P02511, R120G)
T1 construct: expressed in transfected cells; host or cells: HeLa
T1 sequence (P02511 1-175 R120G): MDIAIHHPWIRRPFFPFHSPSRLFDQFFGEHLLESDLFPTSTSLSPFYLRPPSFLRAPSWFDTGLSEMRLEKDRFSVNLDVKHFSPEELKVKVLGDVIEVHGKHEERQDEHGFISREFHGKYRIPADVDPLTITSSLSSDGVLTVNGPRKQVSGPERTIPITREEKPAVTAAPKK
Assay: Intracellular mutated lens protein aggregation inhibition experiment in transfected HeLa cells (Example 21)
Assay type: cell-based
Settings: 10 μM, treated 3.5 hours, then 6.5 h normal medium, fewer + = better
Description: In this example, apart of the specific compounds obtained in Example 19 and Example 20 were selected for intracellular mutated lens protein (αB-crystallin R120G) aggregation inhibition experiment (experimental method was described in Chinese patent CN201580057679). The aggregation inhibition activities of compound I and compound II in the present invention on lens protein mutants were evaluated to screen a compound which was effective in treating related disease such as cataract.
The tumor cell line HeLa was selected as a host cell transfected with the mutant lens protein (αB-crystallin […]) expression plasmid, the medium was DMEM with […], and the culture conditions were 37° C., saturated humidity and 5% carbon dioxide cell incubator. Mycoplasma was negative. The transfection process is that the appropriate number of HeLa cells were inoculated on the pre-coated slides. When fully adherent cells grew to about 75% cell density, the expression vector was transfected with liposome. After 4 hours of transfection, the medium was changed to normal medium. Then the HeLa cells were cultured in the cell incubator for 13 hours to induce the expression of exogenous mutant lens protein. After changing the medium, the replaced new medium contained various compounds of the formula I and formula II of the present invention to be tested (DMSO was used as solvent in all mother fluid), wherein the final concentration of each compound was 10 μM, the negative control was 1.5% DMSO solvent, and the positive control was lanosterol (10 μM). The HeLa cells were treated with the medium containing the test compound, 1.5% DMSO solvent and lanosterol for 3.5 hours, respectively, and the normal fresh medium containing no DMSO, test compound or lanosterol was exchanged and the cells were cultured for another 6.5 h, then Anti-p62 antibody and DAPI were used for routine cellular immunofluorescence detection. The field of vision of three positions per slide was randomly selected, the ratio of cells containing aggregated crystalline proteins (lens protein aggregates) was calculated, and the effect of each test compound on intracellular aggregation of mutant lens proteins was finally determined, the results were shown in Table 19.

Compound: CC(C)=CCCC(C=O)[C@H]1CC[C@@]2(C)C3=C(CC[C@]12C)[C@@]1(C)CC[C@H](O)C(C)(C)C1CC3 (stereo partly drawn) [Compound 2″]
- Inhibitory effect (percentage of cells containing aggregated proteins): ++ (>30% and <45% of the cells in the field of vision contained protein aggregates)

Compound: C[C@H](C(O)/C=C/C(C)(C)O)[C@H]1CC[C@@]2(C)C3=C(CC[C@]12C)[C@@]1(C)CC[C@H](O)C(C)(C)C1CC3 (stereo partly drawn) [Compound 4″]
- Inhibitory effect (percentage of cells containing aggregated proteins): + (<30% of the cells in the field of vision contained protein aggregates)

Compound: C[C@H](C(O)C/C=N/O)[C@H]1CC[C@@]2(C)C3=C(CC[C@]12C)[C@@]1(C)CC[C@H](O)C(C)(C)C1CC3 (stereo partly drawn) [Compound 5]
- Inhibitory effect (percentage of cells containing aggregated proteins): + (<30% of the cells in the field of vision contained protein aggregates)

Compound: CC(C)=CCC[C@H](C=O)[C@H]1CC[C@@]2(C)C3=C(CC[C@]12C)[C@@]1(C)CCC(=O)C(C)(C)C1CC3 (stereo partly drawn) [Compound 5″]
- Inhibitory effect (percentage of cells containing aggregated proteins): ++ (>30% and <45% of the cells in the field of vision contained protein aggregates)

Compound: CC(=O)[C@@H](C)[C@H]1CC[C@@]2(C)C3=C(CC[C@]12C)[C@@]1(C)CC[C@H](O)C(C)(C)C1CC3 (stereo partly drawn) [Compound 6″]
- Inhibitory effect (percentage of cells containing aggregated proteins): ++ (>30% and <45% of the cells in the field of vision contained protein aggregates)

Compound: C=C(C)C(=O)CC[C@@H](C(=O)O)[C@H]1CC[C@@]2(C)C3=C(CC[C@]12C)[C@@]1(C)CC[C@H](O)C(C)(C)C1CC3 (stereo partly drawn) [Compound 7″]
- Inhibitory effect (percentage of cells containing aggregated proteins): ++ (>30% and <45% of the cells in the field of vision contained protein aggregates)

Compound: COC(C)(C)C(O)CC(O)[C@@H](C)[C@H]1CC[C@@]2(C)C3=C(CC[C@]12C)[C@@]1(C)CC[C@H](O)C(C)(C)C1CC3 (stereo partly drawn) [Compound 8″]
- Inhibitory effect (percentage of cells containing aggregated proteins): ++ (>30% and <45% of the cells in the field of vision contained protein aggregates)

Compound: CO[C@H]1CC[C@]2(C)C3=C(CCC2C1(C)C)[C@]1(C)CC[C@H]([C@H](C)C(O)CCC(C)(C)OC)[C@@]1(C)CC3 (stereo partly drawn) [Compound 9]
- Inhibitory effect (percentage of cells containing aggregated proteins): ++ (>30% and <45% of the cells in the field of vision contained protein aggregates)

Compound: CC(=O)O[C@H]1CC[C@]2(C)C3=C(CCC2C1(C)C)[C@]1(C)CC[C@H]([C@H](C)C(O)CC2OC2(C)C)[C@@]1(C)CC3 (stereo partly drawn) [Compound 10]
- Inhibitory effect (percentage of cells containing aggregated proteins): + (<30% of the cells in the field of vision contained protein aggregates)

Compound: C[C@H](C(O)CC(Br)C(C)(C)O)[C@H]1CC[C@@]2(C)C3=C(CC[C@]12C)[C@@]1(C)CC[C@H](O)C(C)(C)C1CC3 (stereo partly drawn) [Compound 13]
- Inhibitory effect (percentage of cells containing aggregated proteins): ++ (>30% and <45% of the cells in the field of vision contained protein aggregates)

Compound: C[C@H](C(O)CCC(C)(C)O)[C@H]1CC[C@@]2(C)C3=C(CC[C@]12C)[C@@]1(C)CC[C@H](O)C(C)(C)C1CC3 (stereo partly drawn) [Compound 15]
- Inhibitory effect (percentage of cells containing aggregated proteins): + (<30% of the cells in the field of vision contained protein aggregates)

Compound: CC(C)(O)CCC[C@@H](C(=O)O)[C@H]1CC[C@@]2(C)C3=C(CC[C@]12C)[C@@]1(C)CC[C@H](O)C(C)(C)C1CC3 (stereo partly drawn) [Compound 15′]
- Inhibitory effect (percentage of cells containing aggregated proteins): + (<30% of the cells in the field of vision contained protein aggregates)

Compound: C[C@H](C(O)CC(O)C(C)(C)O)[C@H]1CC[C@@]2(C)C3=C(CC[C@]12C)[C@@]1(C)CC[C@H](O)C(C)(C)C1CC3 (stereo partly drawn) [Compound 17]
- Inhibitory effect (percentage of cells containing aggregated proteins): ++ (>30% and <45% of the cells in the field of vision contained protein aggregates)

Compound: C=C(C)C(=O)CC(O)C(C)[C@H]1CC[C@@]2(C)C3=C(CC[C@]12C)[C@@]1(C)CC[C@H](O)C(C)(C)C1CC3 (stereo partly drawn) [Compound 17″]
- Inhibitory effect (percentage of cells containing aggregated proteins): ++ (>30% and <45% of the cells in the field of vision contained protein aggregates)

Compound: C[C@H](C(O)CC(=O)C(C)(C)O)[C@H]1CC[C@@]2(C)C3=C(CC[C@]12C)[C@@]1(C)CC[C@H](O)C(C)(C)C1CC3 (stereo partly drawn) [Compound 20]
- Inhibitory effect (percentage of cells containing aggregated proteins): ++ (>30% and <45% of the cells in the field of vision contained protein aggregates)
